Source: ChEMBL document CHEMBL1137453, “Structure-activity relationship and biological property of cortistatins, anti-angiogenic spongean steroidal alkaloids” (Bioorg Med Chem, 2007)

What was measured:
[1] = tested on: HUVEC; experiment: Antiproliferative activity against HUVEC cells by WST-8 colorimetric assay; assay type: cell-based; details: Homo sapiens
[2] = tested on: K562; experiment: Antiproliferative activity against human K562 cells by WST-8 colorimetric assay; assay type: functional, cell-based
[3] = Antiproliferative activity against human KB3-1 cells by WST-8 colorimetric assay; assay type: functional, cell-based; details: KB 3-1
[4] = Antiproliferative activity against mouse Neuro-2A cells by WST-8 colorimetric assay; assay type: functional, cell-based; details: N2a
[5] = tested on: NHDF; experiment: Antiproliferative activity against NHDF cells by WST-8 colorimetric assay; assay type: functional, cell-based; details: Homo sapiens

| IC50 [2] [µM] | Structure (SMILES) | IC50 [1] [µM] | IC50 [3] [µM] | IC50 [4] [µM] | IC50 [5] [µM] |
| --- | --- | --- | --- | --- | --- |
| > 300 | CN(C)[C@H]1C[C@@]23CC[C@@]4(O2)C(=CC[C@@]2(C)[C@H]4CC(=O)[C@]2(O)c2ccc4ccncc4c2)C=C3[C@@H](O)[C@@H]1O | 0.15 | 55 | > 300 | > 300 |
| 200 | CN(C)[C@H]1C[C@@]23CC[C@@]4(O2)C(=CC[C@@]2(C)[C@H]4C[C@H](O)[C@@H]2c2ccc4ccncc4c2)C=C3[C@@H](O)[C@@H]1O | 1.1 | 120 | 160 | > 300 |
| 2.8 | CC1CN(C)CCC1CCC(C)[C@H]1CC[C@@H]2[C@]1(C)CCC1=CC3=CC[C@@H](N(C)C)C[C@]34CC[C@@]12O4 (stereo not given in full) [CORTISTATIN E] | 0.45 | 2.5 | 1.9 | 1.9 |
| 4 | CC1CN(C)CCC1CCC(C)[C@H]1CC[C@@H]2[C@]1(C)CC=C1C=C3C=C[C@@H](N(C)C)C[C@]34CC[C@@]12O4 (stereo not given in full) [CORTISTATIN F] | 1.9 | 10.8 | 4 | 4.1 |
| 3.8 | Cc1cnccc1/C=C/C(C)[C@H]1CC[C@@H]2[C@]1(C)CCC1=CC3=CC[C@@H](N(C)C)C[C@]34CC[C@@]12O4 (stereo not given in full) [CORTISTATIN G] | 0.8 | 8.9 | 4 | 2.9 |
| 2.7 | Cc1cnccc1CCC(C)[C@H]1CC[C@@H]2[C@]1(C)CCC1=CC3=CC[C@@H](N(C)C)C[C@]34CC[C@@]12O4 (stereo not given in full) [CORTISTATIN H] | 0.35 | 2.3 | 2.2 | 2.7 |
| 3.3 | CN(C)[C@@H]1C=CC2=CC3=CC[C@]4(C)[C@@H](c5ccc6ccncc6c5)CC[C@H]4[C@@]34CC[C@]2(C1)O4 [CORTISTATIN J] | 0.008 | 9.1 | 3.3 | 2.4 |
| 3.9 | CN(C)[C@@H]1CC=C2C=C3CC[C@]4(C)[C@@H](c5ccc6ccncc6c5)CC[C@H]4[C@@]34CC[C@]2(C1)O4 [CORTISTATIN K] | 0.04 | 10.2 | 3 | 2.5 |
| 4.3 | CN(C)[C@H]1C[C@@]23CC[C@@]4(O2)C(=CC3=C[C@@H]1O)CC[C@]1(C)[C@@H](c2ccc3ccncc3c2)CC[C@H]14 [CORTISTATIN L] | 0.023 | 14 | 2.8 | 2.4 |
